Measurements as given in EP2181998B1, “New benzothiazinone derivative and its use as antibacterial agent” (priority 2006, dated 2007).
Values after ≈ are worked out from the molar mass of the structure shown.

Experiments:
[1] = system: Mycobacterium smegmatis SG 987; assay type: cell-based; settings: Mycolicibacterium smegmatis, SG987; read-out: MIC M. smegmatis
M. vaccae IMET 10 10670 = assay type: cell-based
[2] = system: Mycobacterium tuberculosis clinical isolate 6341; assay type: cell-based
[3] = system: Mycobacterium tuberculosis clinical isolate 6374; assay type: cell-based
[4] = system: Mycobacterium tuberculosis H37Rv and clinical isolates 6341 and 6374; assay: MIC and MBC, classical method, over several strains; assay type: cell-based
[5] = system: Mycobacterium tuberculosis H37Rv; assay: Murine TB model (experimental hematogenously disseminated tuberculosis); assay type: in vivo, BALB/c line mice; settings: for Injury index: daily 6 times per week, four-score scale, liver, spleen and lungs; for Efficacy index (%): 100% - injury index of group / injury index of control x 100; for right lung Culture, without dilution CFU / spleen Culture, without dilution CFU: 42 days after inoculation of the culture medium
in vivo = settings: mouse
[6] = Toxicity after per os administration; settings: mice

With `CC1COC2(CCN(c3nc(=O)c4cc(C(F)(F)F)cc([N+](=O)[O-])c4s3)CC2)O1` (centres unmarked) [Compound 2, 2-(2-methyl-1,4-dioxa-8-azaspiro[4.5]dec-8-yl)-8-nitro-6-(trifluoromethyl)-1,3-benzothiazin-4-one] the MIC [1] was 0.00156 µg/mL (≈ 0.00362 µM), the “MIC M.vaccae” value (M. vaccae IMET 10 10670) was 0,76pg/ml and the MBC [2] was 0.39 µg/mL (≈ 0.904 µM). The MIC [2] was 0.29 µg/mL (≈ 0.672 µM), the MBC [3] was 0.39 µg/mL (≈ 0.904 µM) and the MIC [3] was 0.195 µg/mL (≈ 0.452 µM). For the same compound, the MBC ([4]; read-out: MBC (µg/mL) mean) was 0.45 µg/mL (≈ 1.04 µM), the MIC ([4]; read-out: MIC (µg/mL) mean) was 0.29 µg/mL (≈ 0.672 µM) and the Injury index ([5]; 12 mg/kg orally) was 2,1. The “Efficacy index (%)” value ([5]; 12 mg/kg orally) was 44,7%, the “right lung Culture, without dilution CFU” value ([5]; 12 mg/kg orally) was “∼ 60 CFU” and the “spleen Culture, without dilution CFU” value ([5]; 12 mg/kg orally) was “∼ 60 CFU”. The Injury index ([5]; 25 mg/kg orally) was 1,0, the “Efficacy index (%)” value ([5]; 25 mg/kg orally) was 78% and the “right lung Culture, without dilution CFU” value ([5]; 25 mg/kg orally) was “∼ 35 CFU”. The “spleen Culture, without dilution CFU” value ([5]; 25 mg/kg orally) was “∼ 35 CFU”, the Survival of animals ([5]; Group 3, 12 mg/kg oral, day of treatment 1, of 10 animals) was 10 and the Survival of animals ([5]; Group 3, 12 mg/kg oral, day of treatment 2, of 10 animals) was 10. For the same compound, the Survival of animals ([5]; Group 3, 12 mg/kg oral, day of treatment 3, of 10 animals) was 10, the Survival of animals ([5]; Group 3, 12 mg/kg oral, day of treatment 4, of 10 animals) was 10 and the Survival of animals ([5]; Group 3, 12 mg/kg oral, day of treatment 5, of 10 animals) was 10. It also gave a Survival of animals ([5]; Group 3, 12 mg/kg oral, day of treatment 6, of 10 animals) of 10, a Survival of animals ([5]; Group 3, 12 mg/kg oral, day of treatment 7, of 10 animals) of 10 and a Survival of animals ([5]; Group 3, 12 mg/kg oral, day of treatment 8, of 10 animals) of 10. The Survival of animals ([5]; Group 3, 12 mg/kg oral, day of treatment 9, of 10 animals) was 10, the Survival of animals ([5]; Group 3, 12 mg/kg oral, day of treatment 10, of 10 animals) was 10 and the Survival of animals ([5]; Group 3, 12 mg/kg oral, day of treatment 11, of 10 animals) was 10. The Survival of animals ([5]; Group 3, 12 mg/kg oral, day of treatment 12, of 10 animals) was 10, the Survival of animals ([5]; Group 3, 12 mg/kg oral, day of treatment 13, of 10 animals) was 10 and the Survival of animals ([5]; Group 3, 12 mg/kg oral, day of treatment 14, of 10 animals) was 10. It also gave a Survival of animals ([5]; Group 3, 12 mg/kg oral, day of treatment 15, of 10 animals) of 10, a Survival of animals ([5]; Group 3, 12 mg/kg oral, day of treatment 16, of 10 animals) of 10 and a Survival of animals ([5]; Group 3, 12 mg/kg oral, day of treatment 17, of 10 animals) of 10. It also gave a Survival of animals ([5]; Group 3, 12 mg/kg oral, day of treatment 18, of 10 animals) of 10, a Survival of animals ([5]; Group 3, 12 mg/kg oral, day of treatment 19, of 10 animals) of 10 and a Survival of animals ([5]; Group 3, 12 mg/kg oral, day of treatment 20, of 10 animals) of 10. For the same compound, the Survival of animals ([5]; Group 3, 12 mg/kg oral, day of treatment 21, of 10 animals) was 10, the Survival of animals ([5]; Group 3, 12 mg/kg oral, day of treatment 22, of 10 animals) was 10 and the Survival of animals ([5]; Group 3, 12 mg/kg oral, day of treatment 23, of 10 animals) was 10. The Survival of animals ([5]; Group 3, 12 mg/kg oral, day of treatment 24, of 10 animals) was 10, the Survival of animals ([5]; Group 3, 12 mg/kg oral, day of treatment 25, of 10 animals) was 10 and the Survival of animals ([5]; Group 3, 12 mg/kg oral, day of treatment 26, of 10 animals) was 10. For the same compound, the Survival of animals ([5]; Group 3, 12 mg/kg oral, day of treatment 27) was 100%, the Survival of animals ([5]; Groups 4/5, 25 mg/kg oral, day of treatment 1, of 10 animals) was 10 and the Survival of animals ([5]; Groups 4/5, 25 mg/kg oral, day of treatment 2, of 10 animals) was 10. It also gave a Survival of animals ([5]; Groups 4/5, 25 mg/kg oral, day of treatment 3, of 10 animals) of 10, a Survival of animals ([5]; Groups 4/5, 25 mg/kg oral, day of treatment 4, of 10 animals) of 10 and a Survival of animals ([5]; Groups 4/5, 25 mg/kg oral, day of treatment 5, of 10 animals) of 10. For the same compound, the Survival of animals ([5]; Groups 4/5, 25 mg/kg oral, day of treatment 6, of 10 animals) was 10, the Survival of animals ([5]; Groups 4/5, 25 mg/kg oral, day of treatment 7, of 10 animals) was 10 and the Survival of animals ([5]; Groups 4/5, 25 mg/kg oral, day of treatment 8, of 10 animals) was 10. For the same compound, the Survival of animals ([5]; Groups 4/5, 25 mg/kg oral, day of treatment 9, of 10 animals) was 10, the Survival of animals ([5]; Groups 4/5, 25 mg/kg oral, day of treatment 10, of 10 animals) was 10 and the Survival of animals ([5]; Groups 4/5, 25 mg/kg oral, day of treatment 11, of 10 animals) was 10. The Survival of animals ([5]; Groups 4/5, 25 mg/kg oral, day of treatment 12, of 10 animals) was 10, the Survival of animals ([5]; Groups 4/5, 25 mg/kg oral, day of treatment 13, of 10 animals) was 10 and the Survival of animals ([5]; Groups 4/5, 25 mg/kg oral, day of treatment 14, of 10 animals) was 10. It also gave a Survival of animals ([5]; Groups 4/5, 25 mg/kg oral, day of treatment 15, of 10 animals) of 10, a Survival of animals ([5]; Groups 4/5, 25 mg/kg oral, day of treatment 16, of 10 animals) of 10 and a Survival of animals ([5]; Groups 4/5, 25 mg/kg oral, day of treatment 17, of 10 animals) of 10. The Survival of animals ([5]; Groups 4/5, 25 mg/kg oral, day of treatment 18, of 10 animals) was 10, the Survival of animals ([5]; Groups 4/5, 25 mg/kg oral, day of treatment 19, of 10 animals) was 10 and the Survival of animals ([5]; Groups 4/5, 25 mg/kg oral, day of treatment 20, of 10 animals) was 10. For the same compound, the Survival of animals ([5]; Groups 4/5, 25 mg/kg oral, day of treatment 21, of 10 animals) was 10, the Survival of animals ([5]; Groups 4/5, 25 mg/kg oral, day of treatment 22, of 10 animals) was 10 and the Survival of animals ([5]; Groups 4/5, 25 mg/kg oral, day of treatment 23, of 10 animals) was 10. For the same compound, the Survival of animals ([5]; Groups 4/5, 25 mg/kg oral, day of treatment 24, of 10 animals) was 10, the Survival of animals ([5]; Groups 4/5, 25 mg/kg oral, day of treatment 25, of 10 animals) was 10 and the Survival of animals ([5]; Groups 4/5, 25 mg/kg oral, day of treatment 26, of 10 animals) was 10. For the same compound, the Survival of animals ([5]; Groups 4/5, 25 mg/kg oral, day of treatment 27) was 100%, the mice survived ([5]; murine model of tuberculosis infection, all control animals died until day 33) was 100% and the LD50 (in vivo) was greater than 2000 mg/kg. For the same compound, the toxicity ([6]; doses ranging up to 2000 mg/kg) was “non toxic” and the animal death ([6]; doses up to 2000 mg/kg, during 7 days of investigations) was “no cases of animal death”.
